Data from article PMC12673918, “Design, Synthesis, and Selective Antiproliferative Activity of Indolizine Derivatives as Microtubule Destabilizers” (Archiv Der Pharmazie, 2025).
Like-named read-outs stand apart in the source and are kept apart here.

Columns and labels:
Format in all cases: cell-based
CAL‐27 (oral carcinoma) = assay: Resazurin cell viability assay, CAL‐27; conditions: Homo sapiens, CAL-27; for inhibition at 50 µM: read-out: % Cellular growth inhibition (at 50 µM) CAL‐27
How it was run: (§1)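 Cells in DMEM/10% FBS, 1 × 10^3 per well, adhered overnight, then treated with compounds (0–50 µM) for 72 h. Viability read as fluorescence (ex 530, em 590 nm) after 4 h with 44 µM resazurin. % growth inhibition at 50 µM and IC50 by nonlinear regression, triplicates.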

BT‐20 (breast carcinoma) = assay: Resazurin cell viability assay, BT‐20; conditions: Homo sapiens, BT-20; for inhibition at 50 µM: read-out: % Cellular growth inhibition (at 50 µM) BT‐20
How it was run: as §1

[1] = tested on: HGC‐27 (gastric carcinoma); assay: Resazurin cell viability assay, HGC‐27; conditions: for decrease in IC50 relative to 7f (HIT): HGC‐27; for inhibition at 50 µM / IC50: Homo sapiens, HGC-27; for inhibition at 50 µM: read-out: % Cellular growth inhibition (at 50 µM) HGC‐27
How it was run: as §1

[2] = tested on: OHMF (non‐tumoral oral fibroblast); assay: Resazurin cell viability assay, OHMF fibroblasts; conditions: Homo sapiens, 72 h, n = 3
Experimental: The tongue squamous cell carcinoma cell line CAL‐27 (ATCC CRL‐2095), breast carcinoma BT‐20 (ATCC HTB‐19), gastric carcinoma HGC‐27 (BCRJ Code 0310), and normal oral fibroblast OHMF (culture of fibroblasts derived from human oral healthy mucosa, approved by the Research Ethics Committee of the University of São Paulo, Campus of Ribeirão Preto, Brazil (with protocol number 049) were cultured in DMEM medium (DMEM, Sigma‐Aldrich, St. Louis, MO, USA) supplemented with 10% fetal bovine serum and a solution of penicillin (100 U/mL) and streptomycin (100 μg/mL). The cultures were maintained in a humidified incubator with 5% CO₂ at 37°C.
Cell viability was analyzed using the resazurin assay. For this, cells were seeded in 96‐well plates (1 × 10^3 cells per well) and incubated at 37°C with 5% CO₂ overnight for cell adhesion. Subsequently, the cells were treated with different compounds (0–50 µM) for 72 h. After treatment, the medium was replaced with phenol‐free DMEM medium (Sigma‐Aldrich) containing resazurin at a concentration of 44 µM (Sigma‐Aldrich). After incubation for 4 h at 37°C, fluorescence detection was performed (excitation 530/25 nm, emission 590/35 nm) using a microplate fluorimeter (Synergy 2, Biotek). Initial cell growth inhibition assays were performed in triplicate or quadruplicate, while IC50 determinations were conducted in triplicate. Data were plotted, and IC₅₀ values were determined by nonlinear regression using GraphPad Prism software 9.0.

human P2X7 receptor = biological target: T1, human P2X7 receptor (Homo sapiens, UniProt Q99572); assay: YO‐PRO‐1 dye uptake assay for the P2X7 receptor; conditions: for off‐target activity against the P2X7 receptor: 10 μM; for inhibition at 10 µM: P2X7, read-out: % Inhibition of P2X7R at 10 µM compounds’ concentration
T1 construct: host or cells: HEK-293
T1 sequence (Q99572 1-595): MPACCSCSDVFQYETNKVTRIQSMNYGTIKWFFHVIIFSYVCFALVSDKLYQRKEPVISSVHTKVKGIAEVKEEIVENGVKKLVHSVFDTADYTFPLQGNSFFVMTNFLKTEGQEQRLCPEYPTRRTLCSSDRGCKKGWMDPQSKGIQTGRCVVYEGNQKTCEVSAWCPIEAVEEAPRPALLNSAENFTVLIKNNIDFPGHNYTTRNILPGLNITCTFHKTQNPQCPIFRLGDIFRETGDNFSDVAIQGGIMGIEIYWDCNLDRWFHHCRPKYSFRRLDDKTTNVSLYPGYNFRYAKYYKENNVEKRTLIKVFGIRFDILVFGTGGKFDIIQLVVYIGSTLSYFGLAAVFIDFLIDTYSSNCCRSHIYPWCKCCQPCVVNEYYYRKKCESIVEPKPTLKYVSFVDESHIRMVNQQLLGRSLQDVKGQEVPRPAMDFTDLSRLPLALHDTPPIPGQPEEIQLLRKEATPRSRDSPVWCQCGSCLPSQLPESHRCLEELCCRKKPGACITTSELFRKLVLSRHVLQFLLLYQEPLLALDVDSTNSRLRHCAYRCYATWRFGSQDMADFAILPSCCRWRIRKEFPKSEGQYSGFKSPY
Experimental: HEK‐293 cell lines stably expressing human P2X7 receptor (hP2X7R‐HEK‐293, B'SYS GmbH, Witterswil, Switzerland) were maintained in a 50/50 mix of Dulbecco's Modified Eagle Medium and F12 medium (DMEM/F12) supplemented with 9% (v/v) FCS, 1% (v/v) Penicillin/Streptomycin (10000 I.U./mL, 10 mg/mL in 0.9% NaCl) and G418 (100 µg/mL) at 37°C and 5% CO2. Cells were subcultured in cell culture 75 cm^2 flasks and split every 2‐4 days (1:3; 1:6; 1:10) once confluent.
HEK‐293 cell lines stably expressing human P2X7 receptor were seeded into black‐walled Nunc 96‐well optical bottom plates (Thermo Fisher Scientific) at 2.0–4.0 × 10^4 cells/well and incubated at 37°C for 24–48 h. After removing the culture medium, cells were washed with 100 µL wash buffer (280 mM Sucrose; 5.6 mM KCl; 0.5 mM CaCl2; 10 mM D‐Glucose; 10 mM HEPES; 5 mM N‐Methyl‐D‐glucamine (pH 7.4)). Then, 50 µL assay buffer (280 mM Sucrose; 6.4 mM KCl, 10 mM D‐Glucose; 10 mM HEPES; 5.0 mM N‐Methyl‐D‐glucamine (pH 7.4)) and 50 µL of antagonist dilutions (10^–5–10^–9 M) in assay buffer were added, and the cells were incubated at 37°C for 30 min. […] Finally, the uptake of YO‐PRO‐1 dye was recorded in a 9‐point‐well scan by following the fluorescence change using a FlexStation 3 Multi‐Mode Microplate Reader (Molecular Devices, San Jose, CA, USA, Software SoftMax7 Pro, endpoint protocol, well scan with reading pattern “fill scan”, λ ex = 485 nm, λ em = 535 nm). To determine the concentration‐dependent uptake inhibition by antagonists, the YO‐PRO‐1 uptake, expressed as RFU, was plotted against the concentrations of the compounds.

GNP15 = assay: Resazurin cellular growth inhibition, GNP15; conditions: 72 hours, triplicate; read-out: IC50 (nM, Cellular growth inhibition) GNP15 (supplement)
Experimental: ^b IC50 values were determined using the same resazurin-based assay, with fluorescence measurements performed after 72 hours of treatment. These experiments were carried out in triplicate.

[3] = 72 h, mean ± SD, n = 3, read-out: IC50 (nM) CAL‐27
[4] = 72 hours, triplicate, read-out: IC50 (nM, Cellular growth inhibition) CAL-27 (supplement)
[5] = 72 h, mean ± SD, n = 3, read-out: IC50 (nM) BT‐20
[6] = 72 hours, triplicate, read-out: IC50 (nM, Cellular growth inhibition) BT-20 (supplement)
[7] = 72 h, mean ± SD, n = 3, read-out: IC50 (nM) HGC‐27
[8] = 72 hours, triplicate, read-out: IC50 (nM, Cellular growth inhibition) HGC-27 (supplement)

| Structure (SMILES) | inhibition at 50 µM (CAL‐27 (oral carcinoma); 72 h, mean ± SD, n = 3) [%] | IC50 (CAL‐27 (oral carcinoma); [3]) [nM] | IC50 (CAL‐27 (oral carcinoma); [4]) [nM] | inhibition at 50 µM (BT‐20 (breast carcinoma); 72 h, mean ± SD, n = 3) [%] | IC50 (BT‐20 (breast carcinoma); [5]) [nM] | IC50 (BT‐20 (breast carcinoma); [6]) [nM] | decrease in IC50 relative to 7f (HIT) [1] | inhibition at 50 µM ([1]; 72 h, mean ± SD, n = 3) [%] | IC50 [1, 7] [nM] | IC50 [1, 8] [nM] | IC50 [2] [nM] | off‐target activity against the P2X7 receptor (human P2X7 receptor) | inhibition at 10 µM (human P2X7 receptor) [%] | IC50 (GNP15) [nM] |
| --- | --- | --- | --- | --- | --- | --- | --- | --- | --- | --- | --- | --- | --- | --- |
| CCCc1cn2cc(OC)ccc2c1C(=O)c1cc(OC)c(OC)c(OC)c1 [Compound 8h, (6‐methoxy‐2‐propylindolizin‐1‐yl)(3,4,5‐trimethoxyphenyl)methanone] | 90 ± 1.8 | 47 ± 18 | 75 ± 35 | 71 ± 2.8 | 90 ± 56 | 47 ± 18 | four‐ to sixfold decrease | 70 ± 3.3 | 75 ± 35 | 90 ± 56 | > 50000 | none of the synthesized compounds, including 8e and 8h, showed significant activity | -1 | > 50000 |
| COc1ccc2c(C(=O)c3cc(OC)c(OC)c(OC)c3)c(C(C)(C)C)cn2c1 [Compound 8b, [2‐(Tert‐Butyl)‐6‐Methoxyindolizin‐1‐yl](3,4,5‐Trimethoxyphenyl)Methanone] | 84 ± 3.2 | – | – | 62 ± 0.5 | – | – | – | 46 ± 6 | – | – | – | – | -7 | – |
| COc1ccc2c(C(=O)c3cc(OC)c(OC)c(OC)c3)c(-c3ccc(C)cc3)cn2c1 [Compound 8j, [6‐methoxy‐2‐(p ‐tolyl)indolizin‐1‐yl](3,4,5‐trimethoxyphenyl)methanone] | 73 ± 4 | 300 ± 85 | 465 ± 35 | 61 ± 2 | 465 ± 35 | 300 ± 85 | – | 71 ± 2 | 465 ± 35 | – | > 50000 | – | -2 | > 50000 |
| COc1ccc2c(C(=O)c3cc(OC)c(OC)c(OC)c3)c(C)cn2c1 [Compound 8a, (6‐methoxy‐2‐methylindolizin‐1‐yl)(3,4,5‐trimethoxyphenyl)methanone] | 64 ± 2.7 | 325 ± 92 | 410 ± 212 | 52 ± 5 | 370 ± 28 | 325 ± 92 | – | 41 ± 4.3 | 410 ± 212 | 370 ± 28 | > 50000 | – | 9 | > 50000 |
| COc1ccc2c(C(=O)c3cc(OC)c(OC)c(OC)c3)c(C(F)(F)F)cn2c1 [Compound 8e, [6‐methoxy‐2‐(trifluoromethyl)indolizin‐1‐yl](3,4,5‐trimethoxyphenyl)methanone] | 76 ± 1.3 | 75 ± 21 | 117 ± 32 | 62 ± 2.3 | 105 ± 49 | 75 ± 21 | four‐ to sixfold decrease | 53 ± 2.2 | 117 ± 32 | 105 ± 49 | > 50000 | none of the synthesized compounds, including 8e and 8h, showed significant activity | 8 | > 50000 |
| COc1ccc(-c2cn3cc(OC)ccc3c2C(=O)c2cc(OC)c(OC)c(OC)c2)cc1 [Compound 8k, [6‐methoxy‐2‐(4‐methoxyphenyl)indolizin‐1‐yl](3,4,5‐trimethoxyphenyl)methanone] | 73 ± 4.5 | 690 ± 156 | 880 ± 14 | 64 ± 1.5 | 800 ± 127 | 690 ± 156 | – | 74 ± 2 | 880 ± 14 | 800 ± 127 | > 50000 | – | 10 | > 50000 |
| COc1ccc2c(C(=O)c3ccc(Cl)c(Cl)c3)ccn2c1 [Compound 7e, (6‐methoxyindolizin‐1‐yl)(3,4‐dichlorophenyl)methanone] | 70 ± 3.8 | 12400 | 11900 | 53 ± 1.8 | 14100 | 12400 | – | 68 ± 3.4 | 11900 | 14100 | > 50000 | – | 4 | > 50000 |
